Assay results reported in ChEMBL document CHEMBL1667782, “Glucose-lowering activity of novel tetrasaccharide glyceroglycolipids from the fruits of Cucurbita moschata” (2011).

How the values were obtained:
Assay type in all cases: functional
Settings in all cases: route intraperitoneal
Mus musculus [1] = assay: Antidiabetic activity in streptozotocin-induced C57/BL6J mouse diabetic model assessed as serum glucose level at 50 mg/kg, ip after 14 days (reference value: 22.17 +/- 5.63 mmol/L)
Mus musculus [2] = assay: Antidiabetic activity in streptozotocin-induced C57/BL6J mouse diabetic model assessed as serum glucose level at 50 mg/kg, ip after 28 days (reference value: 23.77 +/- 6.12 mmol/L)
Mus musculus [3] = assay: Antidiabetic activity in streptozotocin-induced C57/BL6J mouse diabetic model assessed as serum glucose level at 50 mg/kg, ip after 21 days (reference value: 23.89 +/- 6.98 mmol/L)
Mus musculus [4] = assay: Antidiabetic activity in streptozotocin-induced C57/BL6J mouse diabetic model assessed as serum glucose level at 50 mg/kg, ip after 7 days (reference value: 22.65 +/- 6.16 mmol/L)

CC/C=C\C/C=C\C/C=C\CCCCCCCC(=O)OCC(O)CO[C@@H]1O[C@H](CO[C@@H]2O[C@H](CO[C@@H]3O[C@H](CO[C@@H]4O[C@H](CO)[C@H](O)[C@H](O)[C@H]4O)[C@H](O)[C@H](O)[C@H]3O)[C@H](O)[C@H](O)[C@H]2O)[C@H](O)[C@H](O)[C@H]1O (stereo partly drawn) showed an Activity (Mus musculus [1]) of 18.27 mmol/L, an Activity (Mus musculus [2]) of 14.61 mmol/L and an Activity (Mus musculus [3]) of 16.36 mmol/L. It also gave an Activity (Mus musculus [4]) of 20.89 mmol/L.

CCCCC/C=C\C/C=C\CCCCCCCC(=O)OCC(O)CO[C@@H]1O[C@H](CO[C@@H]2O[C@H](CO[C@@H]3O[C@H](CO[C@@H]4O[C@H](CO)[C@H](O)[C@H](O)[C@H]4O)[C@H](O)[C@H](O)[C@H]3O)[C@H](O)[C@H](O)[C@H]2O)[C@H](O)[C@H](O)[C@H]1O (stereo partly drawn) was tested, and the Activity (Mus musculus [1]) was 19.09 mmol/L, the Activity (Mus musculus [2]) was 15.73 mmol/L and the Activity (Mus musculus [3]) was 18.17 mmol/L. For the same compound, the Activity (Mus musculus [4]) was 21.47 mmol/L.
